Measurements as given in the SangsterLogP compilation.

Experiment: method code SF-AS, from DOI: 10.1080/02772240109358997

Compared with `CCCCC(CCCC)(C(=O)OCC)S(=O)(=O)c1ccc([N+](=O)[O-])cc1`, `CCCCC(CCCC)(C(=O)OC(C)C)S(=O)(=O)c1ccc([N+](=O)[O-])cc1` is higher in logP: 3.81 for the first, 4.06 for the second.

Going from `C=CCC(C)(C(=O)OCC)S(=O)(=O)c1ccc([N+](=O)[O-])cc1` (stereo not drawn) to `COC(=O)C(C)(C)S(=O)(=O)c1ccc([N+](=O)[O-])cc1`, the logP falls from 2.3 to 1.38.

First: CCC(CC)(C(=O)OC)S(=O)(=O)c1ccc([N+](=O)[O-])cc1
Second: COC(=O)C(C)S(=O)(=O)c1ccc([N+](=O)[O-])cc1 (stereo not drawn)
The logP of the first is higher: 2.24 for the first, 1.06 for the second.

Going from `CCOC(=O)C(Cc1ccccc1)(Cc1ccccc1)S(=O)(=O)c1ccc([N+](=O)[O-])cc1` to `CCOC(=O)C(C)(c1cccc2ccccc12)S(=O)(=O)c1ccc([N+](=O)[O-])cc1` (stereo not drawn), the logP rises from 3.4 to 4.4.

Going from `CCOC(=O)CC(CC(=O)OCC)(C(=O)OC(C)C)S(=O)(=O)c1ccc([N+](=O)[O-])cc1` to `CCOC(=O)CC(C(=O)OC)S(=O)(=O)c1ccc([N+](=O)[O-])cc1` (stereo not drawn), the logP falls from 3.56 to 1.4.

First: CC(C(=O)OC1CCCCC1)S(=O)(=O)c1ccc([N+](=O)[O-])cc1 (stereo not drawn)
Second: CC(C)OC(=O)CC(C(=O)OC(C)C)S(=O)(=O)c1ccc([N+](=O)[O-])cc1 (stereo not drawn)
The logP of the first is higher: 2.82 for the first, 2.18 for the second.

Compared with `Cc1ccc(S(=O)(=O)C(=Cc2ccccc2)C(=O)OC(C)C)cc1`, `CC(C)OC(=O)C(=Cc1ccccc1)S(=O)(=O)c1ccc(Cl)cc1` is higher in logP: 3.92 for the first, 4.18 for the second.

`CC(C)OC(=O)C(=Cc1ccccc1)S(=O)(=O)c1ccc([N+](=O)[O-])cc1` and `CC(C)COC(=O)C(=Cc1ccccc1)S(=O)(=O)c1ccc([N+](=O)[O-])cc1` are within 0.2 log units of each other in logP: 3.62 for the first, 3.68 for the second.

Going from `CCOC(=O)C(=Cc1ccccc1)S(=O)(=O)c1ccc([N+](=O)[O-])cc1` to `COC(=O)C(=Cc1ccccc1)S(=O)(=O)c1ccc([N+](=O)[O-])cc1`, the logP falls from 3.2 to 2.9.
